In patent US4237139A, “4-(3-(4-Quinolyl)propyl)piperidines, their preparation and their use as medicines” (Pharmindustrie, priority 1976, dated 1980):
Where two headings read alike, the source gives them in different places.

Columns and labels:
[1] = Acute toxicity (LD50) in mice; conditions: mouse, in vivo
Experimental: The acute toxicities and symptomatologies of the compounds according to the present invention have been determined on CD1 (Charles River) male mice by I.V. and oral methods. The LD50's were calculated, after 3 days of observation, by the cumulative method of J. J. Reed & H. Muench, Amer. J. Hyg., 27, 493, 1938, which is relied on herein and the disclosure incorporated by reference.

in vivo = conditions: rat, iv
[2] = system: ventricular arrhythmia caused by aconitine; test: animal or person; conditions: Rattus norvegicus, iv, read-out: ED50 I.V., dose increasing by 50% the perfusion time of aconitine
5-HTP-induced quivering = test: Potentiation test of 5-hydroxytryptophan (5-HTP), quivering in mice; type: in vivo, CD1 (Charles River) male mice; conditions: for ED50: Mus musculus, sc, read-out: ED 50, dose giving an average indication of quivering equal to 1; for inherent effect (in the absence of 5-HTP): dose of 25 mg/kg, control product groups
Description: (2) Potentialing Effect of 5-HTP:
It is known that the administration of 5-HTP parenterally in mice causes, with large doses, a characteristic behavior, i.e. quivering, torsions of the trunk, displacement of the rear legs, shaking of the head and increased general motility. To show a potentiating power with respect to 5-HTP, the present inventors have therefore used to advantage one of the characteristic properties of the precursor of serotonine, i.e. quivering. The procedure used is inspired by that of C. […] Groups of 8 male mice were used. The chronological order of the test was as follows for the groups treated with both 5-HTP and the products according to the invention.
At time t=30 min., the product to the tested was injected subcutaneously (S.C.) in the form of a 9% aqueous solution of NaCl.
At time t=75 min., the quivering in each animal was measured using the following scale:
1=quivering of average intensity
The chronological order was the same for the "control 5-HTP" and "control product" groups except that, in the first case, a 9% aqueous solution of NaCl was injected in the S.C. manner instead of the product solution and, in the second case, a 9% aqueous solution of NaCl was injected in the I.P. manner instead of the 5-HTP solution. The "control product" groups received the same doses of the tested product as the groups treated with both 5-HTP and the product in order to discover any possible effect inherent in the product.
The number of points for each group was totalled and the average indication of quivering was determined.

[3] = system: uptake of serotonine by human blood platelets; test: Inhibition of the uptake of serotonine by human blood platelets; type: cell-based; conditions: for IC50: Platelet, read-out: Inhibition of the Uptake of serotonine I50; for times less effective than its epimer as inhibitor of serotonine uptake: Example 7 vs Example 1, Example 9 vs Example 3
Description: It is known that the uptake of serotonine by the blood platelets is a good model or indication of the uptake of this amine by neurons [see J. TUOMISTO, J. Pharm., Pharmac., 26 92 (1974)]. When it is applied to the investigation of medicaments, a method which brings into play the blood platelets presents great interest because it makes it possible to use human cells, which enables the method to give a good anticipation of the effect of the products on human beings.
(§1) The capacity of the products for inhibiting the uptake of serotonine or for causing its release has been shown on human blood platelets according to J. L. DAVID et al. "Platelets Function and Thrombosis, a Review of Methods" p. 335 (Plenum Press, London, 1972).
(a) Inhibition of the uptake of serotonine
The results are expressed by a 50% inhibiting dose I50, which represents the product dose in micromoles per liter reducing the uptake of serotonine by 50%.

[4] = system: release of serotonine by human blood platelets; test: Release of serotonine from human blood platelets; type: cell-based; conditions: for activation at 5 µM / activation at 50 µM: Homo sapiens, Platelet, read-out: Percentage of increase of the release of serotonine; for release of serotonine compared with p-chloro amphetamine, in words / release of serotonine, in words: human blood platelets
Description: as §1
(b) Release of serotonine
The action of the products on the release of serotonine has been tested at two concentrations: 5×10^-6 mole per liter and 5×10^-5mole per liter.
The results obtained are expressed by a percentage of increase of the release of serotonine in comparison with the results obtained with the controls.

[5] = system: sleep induced by serotonine; test: Potentiation of sleep induced by serotonine in chickens; type: in vivo, chicken
Experimental: The role of the cerebral serotonine in sleep is a well-known fact as reported by M. Jouvet and Coll., C. R. Acad. Sc.
Groups of 12 chickens were used, to which were administered intravenously serotonine at a dosage level of 0.1 mg/kg.

[6] = system: vasoconstriction of the nasal mucous membrane; test: Vascular action: potentiation of the vascular effects of serotonine in anaesthetized dog; type: in vivo
Experimental: The potentiation of the vascular effects of serotonine is shown according to the procedure of J. J. Loux, Arch. […] The modified method consists in injecting into the carotid of an anaesthetized dog increasing and cumulated doses of serotonine. […] This increase was measured by connecting the nasal sinus, hermetically isolated from outside, with a pressure gauge.

[7] = system: ventricular arrhythmia caused by aconitine; conditions: aconitine test, rats
[8] = system: uptake of serotonine by synaptosomes of the rat's brain; test: Inhibition of the uptake of serotonine by synaptosomes of the rat's brain; type: biochemical; conditions: in vitro, read-out: 50% inhibiting dose I50, uptake of serotonine by synaptosomes
[9] = target: benzodiazepine receptors in rat brain membranes; test: Inhibition of specific ^3 H-diazepam binding to rat brain membranes; conditions: for Ki: read-out: Ki, Inhibition of Specific ^3 H-Diazepam Binding To Rat Brain Membranes, rat brain membranes, ^3 H-diazepam
[10] = iv, I.V., Table 4 (toxicity; species not given), read-out: LD50 I.V.
[11] = po, Table 6, P.O., mice, 3 days of observation, read-out: LD50 P.O.
[12] = 5 × 10^-5 mole per liter, in comparison with controls
[13] = 5 × 10^-6 mole per liter, in comparison with controls

CC(C)N(CCC(C(N)=O)(c1ccccc1)c1ccccn1)C(C)C (stereo not drawn) [Disopyramide, reference compound]
LD50 at 72 h [1, 10]: 26 mg/kg
selectivity ratio (in vivo): 6.5
ED50 [2]: 4 mg/kg

C=C[C@H]1CNCC[C@H]1CCCc1ccnc2ccc(OC)cc12 [Example 1, 4(R)-[3-(6-methoxy 4-quinolyl)propyl] 3(R)-vinyl piperidine]
ED50 (5-HTP-induced quivering): 14 mg/kg
inherent effect (in the absence of 5-HTP) (5-HTP-induced quivering): did not have any inherent effect
IC50 ([3]; Homo sapiens): 0.01 µM
activation at 5 µM [4]: 7%
activation at 50 µM [4]: 32%
chickens sent to sleep ([5]; product of Example 1 at 3 mg/kg I.V. + serotonine 0.1 mg/kg I.V.): 60%
potentiation of vascular effect of serotonine (pressure decrease measured by the gauge) ([6]; 1 μg/kg I.V., 0.05 μg/kg of serotonine): twice greater
LD50 at 72 h [1, 10]: 30 mg/kg
LD50 at 72 h [1, 11]: 600 mg/kg
antiarythmic effectiveness compared with quinidine and disopyramide, in words [7]: more effective than the reference products (quinidine and disopyramide)
ED50 [2]: 2 mg/kg

C=C[C@H]1CNCC[C@H]1CCCc1ccnc2ccccc12 [Example 2, 4(R)-[3-(4-quinolyl)propyl] 3(R)-vinyl piperidine]
IC50 [8]: 0.035 µM
ED50 (5-HTP-induced quivering; product S.C., 5-HTP 150 mg/kg I.P., male mice): 12 mg/kg
inherent effect (in the absence of 5-HTP) (5-HTP-induced quivering): did not have any inherent effect
Ki [9]: 2.5 µM
LD50 at 72 h [1, 10]: 30 mg/kg
LD50 at 72 h [1, 11]: 525 mg/kg
selectivity ratio (in vivo): 2.5
ED50 [2]: 12 mg/kg

CC[C@H]1CNCC[C@H]1CCCc1ccnc2ccc(OC)cc12 [Example 3, 4(R)-[3-(6-methoxy 4-quinolyl)propyl] 3(R)-ethyl piperidine]
IC50 [8]: 0.008 µM
IC50 ([3]; human blood platelets): 0.01 µM
activation at 50 µM [4, 12]: 67%
activation at 5 µM [4, 13]: 34%
release of serotonine compared with p-chloro amphetamine, in words [4]: even more effective than p-chloro amphetamine
release of serotonine, in words [4]: powerful agents for the release of serotonine
Ki [9]: 4.5 µM
LD50 at 72 h [1, 10]: 21 mg/kg
LD50 at 72 h [1, 11]: 600 mg/kg
antiarythmic effectiveness compared with quinidine and disopyramide, in words [7]: more effective than the reference products (quinidine and disopyramide)
selectivity ratio (in vivo): 30
ED50 [2]: 0.7 mg/kg

c1ccc2c(CCCC3CCNCC3)ccnc2c1 [Example 4, 4-[3-(4-quinolyl)propyl]piperidine]
Ki [9]: 3.5 µM
LD50 at 72 h [1, 10]: 42 mg/kg
LD50 at 72 h [1, 11]: 600 mg/kg
selectivity ratio (in vivo): 2.8
ED50 [2]: 15 mg/kg

CC[C@H]1CNCC[C@H]1CCCc1ccnc2ccccc12 [Example 5, 4(R)-[3-(4-quinolyl)propyl] 3(R)-ethyl piperidine]
Ki [9]: 8 µM
LD50 at 72 h [1, 10]: 22 mg/kg
LD50 at 72 h [1, 11]: 600 mg/kg
antiarythmic effectiveness compared with quinidine and disopyramide, in words [7]: more effective than the reference products (quinidine and disopyramide)
selectivity ratio (in vivo): 9.6
ED50 [2]: 2.3 mg/kg

C=C[C@@H]1CNCC[C@H]1CCCc1ccnc2ccc(OC)cc12 [Example 7, 4(R)-[3-(6-methoxy 4-quinolyl)propyl]3(S)-vinyl piperidine]
IC50 ([3]; Homo sapiens): 1 µM
times less effective than its epimer as inhibitor of serotonine uptake ([3]; human blood platelets): 100 times
activation at 5 µM [4]: 40%
activation at 50 µM [4]: 78%
release of serotonine compared with p-chloro amphetamine, in words [4]: even more effective than p-chloro amphetamine
release of serotonine, in words [4]: powerful agents for the release of serotonine
LD50 at 72 h [1, 11]: 225 mg/kg

CC[C@@H]1CNCC[C@H]1CCCc1ccnc2ccc(OC)cc12 [Example 9, 4(R)-[3-(6-methoxy 4-quinolyl)propyl]3(S)-ethyl piperidine]
IC50 ([3]; human blood platelets): 0.1 µM
times less effective than its epimer as inhibitor of serotonine uptake ([3]; human blood platelets): ≥ 10 times
activation at 50 µM [4, 12]: 69%
activation at 5 µM [4, 13]: 30%
release of serotonine compared with p-chloro amphetamine, in words [4]: even more effective than p-chloro amphetamine
release of serotonine, in words [4]: powerful agents for the release of serotonine
Ki [9]: 5 µM
LD50 at 72 h [1, 11]: 200 mg/kg

CN(C)CCCN1c2ccccc2CCc2ccccc21 [Imipramine, reference compound]
IC50 ([3]; Homo sapiens): 0.4 µM
activation at 5 µM [4]: 3%
activation at 50 µM [4]: 13%
Ki, Inhibition of Specific ^3 H-Diazepam Binding To Rat Brain Membranes [9]: inactive

C=C[C@H]1C[N@@]2CC[C@H]1C[C@@H]2[C@@H](O)c1ccnc2ccc(OC)cc12 [Quinidine, reference compound]
LD50 at 72 h [1, 10]: 70 mg/kg
selectivity ratio (in vivo): 9.3
ED50 [2]: 7.5 mg/kg

CC(N)Cc1ccc(Cl)cc1 (stereo not drawn) [p-Chloro amphetamine, p-chloro amphetamine, reference compound]
IC50 ([3]; Homo sapiens): 12 µM
activation at 5 µM [4]: 6%
activation at 50 µM [4]: 51%

NCCc1c[nH]c2ccc(O)cc12 [serotonine, reference compound]
chickens sent to sleep ([5]; serotonine 0.1 mg/kg I.V. alone): 25%
minimal effective dose ([6]; Canis lupus familiaris, serotonine into the carotid, increasing and cumulated doses, read-out: dose from which an increase of the total volume of sinus was observed): ≥ 0.0002 mg/kg
